What was measured:
[1] = target: T1, human 5-HT2C receptor (Homo sapiens, UniProt P28335); experiment: 5-HT2C receptor-stimulated calcium mobilization (FLIPR) in CHO cells; type: cell-based; settings: for Emax: CHO, percentage of the response observed with a maximally effective concentration of 5-HT, read-out: 5-HT2C Function Emax (%); for EC50: calcium mobilization, CHO cells stably expressing human 5-HT2C, read-out: 5-HT2C Function EC50;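 for all read-outs here: Fluo-3-AM fluorescence read on FLIPR every 1 s, agonist added after 10 baseline reads, response taken as peak minus lowest raw fluorescence count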
T1 sequence (P28335 33-458): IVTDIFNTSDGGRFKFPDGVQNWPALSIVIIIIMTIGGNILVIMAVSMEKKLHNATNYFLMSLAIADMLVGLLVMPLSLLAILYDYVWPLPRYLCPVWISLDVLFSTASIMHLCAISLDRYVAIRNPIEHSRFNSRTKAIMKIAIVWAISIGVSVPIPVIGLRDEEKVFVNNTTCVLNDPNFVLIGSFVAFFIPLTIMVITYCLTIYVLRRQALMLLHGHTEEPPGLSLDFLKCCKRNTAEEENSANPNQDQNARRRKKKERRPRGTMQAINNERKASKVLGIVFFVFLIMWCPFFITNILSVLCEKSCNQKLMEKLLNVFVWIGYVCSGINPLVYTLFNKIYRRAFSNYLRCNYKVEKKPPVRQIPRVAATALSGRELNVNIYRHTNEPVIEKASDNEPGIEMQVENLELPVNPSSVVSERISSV

[2] = target: T2, human 5-hydroxytryptamine-2C (h5-HT2C) receptor (Homo sapiens, UniProt P28335); experiment: [125I]DOI binding to membranes of CHO cells expressing the human 5-HT2C receptor; settings: [125I]DOI radioligand, CHO cell membranes, room temperature 60 min; read-out: 5-HT2C Affinity Ki
T2 construct: expressed in transfected cells; host or cells: CHO (Chinese Hamster Ovary) cells; membranes
T2 sequence (P28335 33-458): T1 sequence (P28335 33-458)

Emax [1] [%]	EC50 [1] [nM]	Ki [2] [nM]	Structure (SMILES)
90	8	0.38	NCC1Cc2cc(Cl)cc(-c3ccc(Cl)cc3Cl)c2O1 (racemic) [Example 251, (±)-{[5-chloro-7-(2,4-dichlorophenyl)-2,3-dihydro-1-benzofuran-2-yl]methyl}amine]
90	11	0.89	COc1ccc(-c2cc(Cl)cc3c2OC(CN)C3)c(OC)c1 (racemic) [Example 254, (±)-{[5-chloro-7-(2,4-dimethoxyphenyl)-2,3-dihydro-1-benzofuran-2-yl]methyl}amine]
90	79	5	NCC1Cc2cc(Cl)cc(-c3cc(F)ccc3F)c2O1 (racemic) [Example 255, (±)-{[5-chloro-7-(2,5-difluorophenyl)-2,3-dihydro-1-benzofuran-2-yl]methyl}amine]
100	4	0.74	NCC1Cc2cc(Cl)cc(-c3cc(Cl)ccc3Cl)c2O1 (racemic) [Example 256, (±)-{[5-chloro-7-(2,5-dichlorophenyl)-2,3-dihydro-1-benzofuran-2-yl]methyl}amine]
80	194	28	COc1ccc(Cl)cc1-c1cc(Cl)cc2c1OC(CN)C2 (racemic) [Example 257, (±)-{[5-chloro-7-(5-chloro-2-methoxyphenyl)-2,3-dihydro-1-benzofuran-2-yl]methyl}amine]
80	734	42	NCC1Cc2cc(Cl)cc(-c3ccc(F)c(F)c3)c2O1 (racemic) [Example 258, (±)-{[5-chloro-7-(3,4-difluorophenyl)-2,3-dihydro-1-benzofuran-2-yl]methyl}amine]
90	22	0.13	Cc1cccc(C)c1-c1cc(Cl)cc2c1OC(CN)C2 (racemic) [Example 260, (±)-{[5-chloro-7-(2,6-dimethylphenyl)-2,3-dihydro-1-benzofuran-2-yl]methyl}amine]
100	0.8	1.8	NCC1Cc2cc(Cl)cc(-c3c(Cl)cccc3Cl)c2O1 (racemic) [Example 263, (±)-{[5-chloro-7-(2,6-dichlorophenyl)-2,3-dihydro-1-benzofuran-2-yl]methyl}amine]
90	3	4.9	NCC1Cc2cc(Cl)cc(-c3cccnc3)c2O1 (racemic) [Example 266, (±)-{[(5-chloro-7-pyridin-3-yl-2,3-dihydro-1-benzofuran-2-yl)methyl]amine]
90	35	3.8	Cc1cc2c(c(-c3ccccc3)c1)OC(CN)C2 (racemic) [Example 281, (±)-{[(5-methyl-7-phenyl-2,3-dihydro-1-benzofuran-2-yl)methyl]amine]
90	43	1.7	Cc1cc2c(c(-c3ccccc3C)c1)OC(CN)C2 (racemic) [Example 282, (±)-{[7-(2-methylphenyl)-5-methyl-2,3-dihydro-1-benzofuran-2-yl]methyl}amine]
100	6	1.2	Cc1cc2c(c(-c3ccccc3F)c1)OC(CN)C2 (racemic) [Example 283, (±)-{[7-(2-fluorophenyl)-5-methyl-2,3-dihydro-1-benzofuran-2-yl]methyl}amine]
100	7	0.8	COc1ccccc1-c1cc(C)cc2c1OC(CN)C2 (racemic) [Example 284, (±)-{[7-(2-methoxyphenyl)-5-methyl-2,3-dihydro-1-benzofuran-2-yl]methyl}amine]
100	6	0.76	Cc1cc2c(c(-c3ccccc3Cl)c1)OC(CN)C2 (racemic) [Example 286, (±)-{[7-(2-chlorophenyl)-5-methyl-2,3-dihydro-1-benzofuran-2-yl]methyl}amine]
90	21	0.13	Cc1cc2c(c(-c3ccccc3C(F)(F)F)c1)OC(CN)C2 (racemic) [Example 287, (±)-({5-methyl-7-[2-(trifluoromethyl)phenyl[-2,3-dihydro-7-benzofuran-2-yl}methyl)amine]
100	38	7.1	Cc1cc2c(c(-c3cccc(Cl)c3)c1)OC(CN)C2 (racemic) [Example 288, (±)-{[7-(3-chlorophenyl)-5-methyl-2,3-dihydro-1-benzofuran-2-yl]methyl}amine]
100	44	1	Cc1cccc(-c2cc(C)cc3c2OC(CN)C3)c1 (racemic) [Example 289, (±)-{[7-(3-methylphenyl)-5-methyl-2,3-dihydro-1-benzofuran-2-yl]methyl}amine]
80	58	1.7	Cc1ccc(-c2cc(C)cc3c2OC(CN)C3)cc1 (racemic) [Example 290, (±)-{[7-(4-methylphenyl)-5-methyl-2,3-dihydro-1-benzofuran-2-yl]methyl}amine]

The next lines start with the molecule.

Structure (SMILES)	Emax [1] [%]	EC50 [1] [nM]	Ki [2] [nM]
COc1ccc(C)c(-c2cc(F)cc3c2OC(CN)C3)c1 (racemic) [Example 224, (±)-{[5-fluoro-7-(5-methoxy-2-methylphenyl)-2,3-dihydro-1-benzofuran-2-yl]methyl}amine]	70	455	18
COc1ccc(C)cc1-c1cc(F)cc2c1OC(CN)C2 (racemic) [Example 225, (±)-{[5-fluoro-7-(2-methoxy-5-methylphenyl)-2,3-dihydro-1-benzofuran-2-yl]methyl}amine]	90	3	1.2
NCC1Cc2cc(F)cc(-c3c(F)cccc3F)c2O1 (racemic) [Example 226, (±)-{[7-(2,6-difluorophenyl)-5-fluoro-2,3-dihydro-1-benzofuran-2-yl]methyl}amine]	90	30	1.3
Cc1cccc(C)c1-c1cc(F)cc2c1OC(CN)C2 (racemic) [Example 227, (±)-{[7-(2,6-dimethylphenyl)-5-fluoro-2,3-dihydro-1-benzofuran-2-yl]methyl}amine]	95	3	1.5
NCC1Cc2cc(F)cc(-c3c(Cl)cccc3Cl)c2O1 (racemic) [Example 230, (±)-{[7-(2,6-dichlorophenyl)-5-fluoro-2,3-dihydro-1-benzofuran-2-yl]methyl}amine]	90	48	0.6
CN(C)CC1Cc2cc(F)cc(-c3c(Cl)cccc3Cl)c2O1 (racemic) [Example 237, (±)-{[7-(2,6-dichlorophenyl)-5-fluoro-2,3-dihydro-1-benzofuran-2-yl]methyl}dimethylamine]	80	3	0.57
NCC1Cc2cc(Cl)cc(-c3ccccc3F)c2O1 (racemic) [Example 241, (±)-{[5-chloro-7-(2-fluorophenyl)-2,3-dihydro-1-benzofuran-2-yl]methyl}amine]	90	29	0.3
COc1ccccc1-c1cc(Cl)cc2c1OC(CN)C2 (racemic) [Example 242, (±)-{[5-chloro-7-(2-methoxyphenyl)-2,3-dihydro-1-benzofuran-2-yl]methyl}amine]	90	48	3
NCC1Cc2cc(Cl)cc(-c3ccoc3)c2O1 (racemic) [Example 243, (±)-{[5-chloro-7-(3-furyl)-2,3-dihydro-1-benzofuran-2-yl]methyl}amine]	90	50	0.25
NCC1Cc2cc(Cl)cc(-c3cccc(F)c3F)c2O1 (racemic) [Example 244, (±)-{[5-chloro-7-(2,3-difluorophenyl)-2,3-dihydro-1-benzofuran-2-yl]methyl}amine]	90	52	0.74
NCC1Cc2cc(Cl)cc(-c3cccc(Cl)c3Cl)c2O1 (racemic) [Example 247, (±)-{[5-chloro-7-(2,3-dichlorophenyl)-2,3-dihydro-1-benzofuran-2-yl]methyl}amine]	90	164	15
Cc1cccc(-c2cc(Cl)cc3c2OC(CN)C3)c1C (racemic) [Example 248, (±)-{[5-chloro-7-(2,3-dimethylphenyl)-2,3-dihydro-1-benzofuran-2-yl]methyl}amine]	80	225	9
COc1cccc(-c2cc(Cl)cc3c2OC(CN)C3)c1OC (racemic) [Example 249, (±)-{[5-chloro-7-(2,3-dimethoxyphenyl)-2,3-dihydro 1-benzofuran-2-yl]methyl}amine]	90	21	4
NCC1Cc2cc(Cl)cc(-c3ccc(F)cc3F)c2O1 (racemic) [Example 250, (±)-{[5-chloro-7-(2,4-difluorophenyl)-2,3-dihydro-1-benzofuran-2-yl]methyl}amine]	90	72	2.5

— US7435837B2, “Dihydrobenzofuranyl alkanamine derivatives and methods for using same” (Wyeth, priority 2003, dated 2008)
